Experimental data from patent US10029986B2, “Alkynyl pyridine-substituted amide compound and pesticide” (NISSAN CHEMICAL INDUSTRIES, LTD., priority 2014, dated 2018).

Tests used:
[1] = tested on: Botrytis cinerea; assay: Test on the preventive effect against cucumber gray mold (mycelium inoculation); type: in vivo; details: 48 h, test solution A 500 ppm, 5 ml per pot, cucumber cotyledon, agar block inoculation, 2 days at 20° C.
Outline: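 Cucumber cotyledons (Sagami Hanjiro) were sprayed with 5 ml per pot of a 500 ppm dilution of a 20 wt % emulsifiable concentrate. Next day, mycelial agar plugs of Botrytis cinerea were placed on cotyledons, held humid at 20° C for 2 days. Lesion proportion gave the control value; duplicate.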

[2] = tested on: Botrytis cinerea; assay: Test on the preventive effect against cucumber gray mold (spore inoculation); type: in vivo; details: 72 h, test solution A 500 ppm, 5 ml per pot, cucumber cut leaves, conidium inoculation, 3 days at 20° C.
Outline: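 Cotyledon-stage cucumber (Sagami Hanjiro) sprayed with 500 ppm compound from emulsifiable concentrate; detached treated leaves inoculated with B. cinerea conidia in PDA (1:1). After 3 days at 20 °C, humid, lesion proportion gave control value; duplicate test.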

[3] = tested on: Southern root-knot nematode (Meloidogyne incoqnita); assay: Insecticidal test against Southern root-knot nematode (eggs, 96 well plate); type: in vivo; details: 96 h, test solution B 100 ppm, 10 μl per well, 25° C. dark, 4 days after treatment, read-out: efficacy (unhatched eggs + inactive larvae relative to non-treated)
Procedure: (§1) Compounds of the present invention were dissolved in dimethyl sulfoxide to prepare 1 wt % solutions. Then, distilled water was added to dilute the solutions to the prescribed concentration (100 ppm), and the obtained solutions were used in the following the Test Examples 9 to 12. 60 μl of a potato dextrose 1% agar medium was added to each well of a 96 well plate, and 30 μl of sterilized water containing eggs of Southern root-knot nematode (Meloidogyne incoqnita) (10 eggs/3 μl) was added to each well. Further, 10 μl per well of test solution B of the compounds of the present invention was added, and the plate was left at rest at 25° C. under dark conditions.

[4] = tested on: Asperaillus niger; assay: Test on the antifungal activity against Asperaillus niger; type: cell-based; details: 48 h; test solution B 100 ppm, 10 μl per well, 96 well plate, 25° C. dark, 2 days after treatment; read-out: efficacy (flora area ratio relative to non-treated well)
Procedure: as §1, with “spores” for “eggs”, “Asperaillus niger” for “Southern root-knot nematode (Meloidogyne incoqnita)”, “spores/3” for “eggs/3”, “conditions. 2 days after treatment, the flora area ratio (%) was determined to calculate the efficacy (%) relative to the non-treated well in accordance with the following formula. Efficacy (%)=[1−(flora area ratio in treated plot/flora area ratio in non-treated well)]×100” for “conditions.”

[5] = tested on: Sclerotinia sclerotiorum; assay: Test on the preventive effect against cucumber stem rot; type: in vivo; details: 48 h, test solution A 500 ppm, 5 ml per pot, agar block inoculation, 2 days at 20° C.
Outline: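 Cucumber (Sagami Hanjiro) at cotyledon stage sprayed with 5 ml/pot of 500 ppm compound from a 20 wt % emulsifiable concentrate, air-dried, then inoculated on seed leaves with agar blocks of S. sclerotiorum grown on PDA. Kept humid at 20° C for 2 days; lesion proportion scored and control value calculated, in duplicate.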

[6] = tested on: Barber pole worm (Haemonchus contortus); assay: Insecticidal test against Barber pole worm (eggs, 96 well plate); type: in vivo; details: 96 h, test solution B 100 ppm, 10 μl per well, 25° C. dark, 4 days after treatment, read-out: efficacy (unhatched eggs and inactive larvae relative to non-treated)
Procedure: as §1, with “Barber pole worm (Haemonchus contortus)” for “Southern root-knot nematode (Meloidogyne incoqnita)”

Structure (SMILES) | pest or weed control at 500 µg/mL [1] | pest or weed control at 500 µg/mL [2] | pest or weed control at 100 µg/mL [3] | inhibition of growth at 100 µg/mL [4] | pest or weed control at 500 µg/mL [5] | pest or weed control at 100 µg/mL [6]
CSC(CNC(=O)c1ccccc1C(F)(F)F)c1ncc(C#CC2CC2)cc1Cl (stereo not drawn) [1-021] | ≥ 70% | ≥ 70% | ≥ 50% | ≥ 50% | ≥ 70% | ≥ 50%
Cn1cc(C(=O)NCC(F)(F)c2ncc(C#CC3CC3)cc2Cl)c(C(F)F)n1 [8-003] | ≥ 70% | ≥ 70% | ≥ 50% | ≥ 50% | ≥ 70% | ≥ 50%
CSC(CNC(=O)c1cccnc1C(F)F)c1ncc(C#CC2CC2)cc1Cl (stereo not drawn) [3-020] | ≥ 70% | ≥ 70% | ≥ 50% | ≥ 50% | ≥ 70% | ≥ 50%
CC(C)(C)C#Cc1cnc(CCNC(=O)c2cccnc2C(F)F)c(Cl)c1 [3-002] | ≥ 70% | ≥ 70% | ≥ 50% | ≥ 50% | ≥ 70% | ≥ 50%
COC(c1ncc(C#CC(C)(C)C)cc1Cl)C(C)NC(=O)c1ccccc1C(F)(F)F (stereo not drawn) [1-025] | ≥ 70% | ≥ 70% | ≥ 50% | ≥ 50% | ≥ 70% | ≥ 50%
O=C(NCC(F)(F)c1ncc(C#CC2CC2)cc1Cl)c1cccnc1C(F)F [3-003, N-[2-[3-chloro-5-(cyclopropylethynyl)pyridin-2-yl]-2,2-difluoroethyl]-2-(difluoromethyl)nicotinamide] | ≥ 70% | ≥ 70% | ≥ 50% | ≥ 50% | ≥ 70% | ≥ 50%
COC(c1ncc(C#CC2CC2)cc1Cl)C(C)NC(=O)c1cccnc1C(F)F (stereo not drawn) [3-021] | ≥ 70% | ≥ 70% | ≥ 50% | ≥ 50% | ≥ 70% | ≥ 50%
COC(c1ncc(C#CC2CC2)cc1Cl)C(C)NC(=O)c1sc(C)nc1C(F)F (stereo not drawn) [9-006a] | ≥ 70% | ≥ 70% | ≥ 50% | ≥ 50% | ≥ 70% | ≥ 50%
O=C(NCCc1ncc(C#CC2CC2)cc1Cl)c1cccnc1C(F)F [3-001, N-[2-[3-chloro-5-(cyclopropylethynyl)pyridin-2-yl]ethyl]-2-(difluoromethyl)nicotinamide] | ≥ 70% | ≥ 70% | ≥ 50% | ≥ 50% | ≥ 70% | ≥ 50%
O=C(NCCc1ncc(C#CC2CC2)cc1Cl)c1ccccc1C(F)(F)F [1-002] | ≥ 70% | ≥ 70% | ≥ 50% | ≥ 50% | ≥ 70% | ≥ 50%
